Laboratory results as given in PubChem BioAssay (NCI).
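Compound exposure: 48 hours, 5 concentrations, 96-well plates. Definition used: TGI = concentration required for complete inhibition of growth.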

Columns and labels:
Assay in all cases: NCI tumour cell line growth inhibition, 48 h
SNB-75 CNS = system: SNB-75 CNS
NCI-H226 lung = system: NCI-H226 lung
SF-539 CNS = system: SF-539 CNS
K-562 leukemia = system: K-562 leukemia
BT-549 breast = system: BT-549 breast
SR leukemia = system: SR leukemia
IGROV1 ovarian = system: IGROV1 ovarian
LOX IMVI melanoma = system: LOX IMVI melanoma
HCC-2998 colon = system: HCC-2998 colon
TK-10 renal = system: TK-10 renal
MDA-MB-231 breast = system: MDA-MB-231 breast
OVCAR-8 ovarian = system: OVCAR-8 ovarian
HCT-15 colon = system: HCT-15 colon
A498 renal = system: A498 renal
CAKI-1 renal = system: CAKI-1 renal
COLO 205 colon = system: COLO 205 colon
NCI-H522 lung = system: NCI-H522 lung
RPMI-8226 leukemia = system: RPMI-8226 leukemia
OVCAR-4 ovarian = system: OVCAR-4 ovarian
EKVX NSCLC = system: EKVX NSCLC
OVCAR-3 ovarian = system: OVCAR-3 ovarian
UACC-257 melanoma = system: UACC-257 melanoma
HS 578T breast = system: HS 578T breast
U251 CNS = system: U251 CNS
SW-620 colon = system: SW-620 colon
CCRF-CEM leukemia = system: CCRF-CEM leukemia
HL-60(TB) leukemia = system: HL-60(TB) leukemia
SK-OV-3 ovarian = system: SK-OV-3 ovarian
ACHN renal = system: ACHN renal
RXF 393 renal = system: RXF 393 renal
HOP-62 NSCLC = system: HOP-62 NSCLC
MDA-MB-435 = system: MDA-MB-435
MOLT-4 leukemia = system: MOLT-4 leukemia
MALME-3M melanoma = system: MALME-3M melanoma
OVCAR-5 ovarian = system: OVCAR-5 ovarian
SF-268 CNS = system: SF-268 CNS
UO-31 renal = system: UO-31 renal
SK-MEL-28 melanoma = system: SK-MEL-28 melanoma
SN12C renal = system: SN12C renal
DU-145 prostate = system: DU-145 prostate
A549 NSCLC = system: A549 NSCLC
SF-295 CNS = system: SF-295 CNS
MCF7 breast = system: MCF7 breast
SK-MEL-2 melanoma = system: SK-MEL-2 melanoma
NCI/ADR-RES ovarian = system: NCI/ADR-RES ovarian
T-47D breast = system: T-47D breast
SK-MEL-5 melanoma = system: SK-MEL-5 melanoma
HT29 colon = system: HT29 colon
NCI-H23 lung = system: NCI-H23 lung
786-0 renal = system: 786-0 renal
HCT-116 colon = system: HCT-116 colon
NCI-H460 lung = system: NCI-H460 lung
MDA-N = system: MDA-N
PC-3 prostate = system: PC-3 prostate
UACC-62 melanoma = system: UACC-62 melanoma
KM12 colon = system: KM12 colon
M14 melanoma = system: M14 melanoma
SNB-19 CNS = system: SNB-19 CNS
HOP-92 NSCLC = system: HOP-92 NSCLC

Measured: TGI

O=c1ccn(CC2(CO)CC(Cc3ccccc3)C2)c(=O)[nH]1 (stereo not drawn)
> 100 µM: SNB-75 CNS | NCI-H226 lung | SF-539 CNS | K-562 leukemia | BT-549 breast | SR leukemia | IGROV1 ovarian | LOX IMVI melanoma | HCC-2998 colon | TK-10 renal | MDA-MB-231 breast | OVCAR-8 ovarian | HCT-15 colon | A498 renal | CAKI-1 renal | COLO 205 colon | NCI-H522 lung | RPMI-8226 leukemia | OVCAR-4 ovarian | EKVX NSCLC | OVCAR-3 ovarian | UACC-257 melanoma | HS 578T breast | U251 CNS | SW-620 colon | CCRF-CEM leukemia | HL-60(TB) leukemia | SK-OV-3 ovarian | ACHN renal | RXF 393 renal | HOP-62 NSCLC | MDA-MB-435 | MOLT-4 leukemia | MALME-3M melanoma | OVCAR-5 ovarian | SF-268 CNS | UO-31 renal | SK-MEL-28 melanoma | SN12C renal | DU-145 prostate | A549 NSCLC | SF-295 CNS | MCF7 breast | SK-MEL-2 melanoma | NCI/ADR-RES ovarian | T-47D breast | SK-MEL-5 melanoma | HT29 colon | NCI-H23 lung | 786-0 renal | HCT-116 colon | NCI-H460 lung | MDA-N | PC-3 prostate | UACC-62 melanoma | KM12 colon

C=C(CO[Si](C)(C)C(C)(C)C)C(C)=O
> 52.4 µM: K-562 leukemia
39.7 µM: MALME-3M melanoma
28.4 µM: SK-MEL-5 melanoma
57.3 µM: HCC-2998 colon
56.1 µM: T-47D breast
62.3 µM: SNB-75 CNS
> 21.2 µM: MOLT-4 leukemia
> 100 µM: NCI-H226 lung | TK-10 renal | A498 renal | EKVX NSCLC | U251 CNS | HL-60(TB) leukemia | SK-OV-3 ovarian | HOP-62 NSCLC | DU-145 prostate | A549 NSCLC | SF-295 CNS | SNB-19 CNS | NCI-H460 lung | KM12 colon
27.5 µM: M14 melanoma
44 µM: BT-549 breast
99.6 µM: NCI/ADR-RES ovarian
> 56.3 µM: NCI-H23 lung
34.6 µM: SK-MEL-28 melanoma
37.5 µM: OVCAR-8 ovarian
36.3 µM: MDA-MB-435
86.2 µM: OVCAR-5 ovarian
77.6 µM: HCT-15 colon
46.9 µM: CAKI-1 renal
98.5 µM: PC-3 prostate
34.3 µM: UACC-257 melanoma | 786-0 renal
> 74.6 µM: SF-268 CNS
> 31.6 µM: SR leukemia
24.7 µM: LOX IMVI melanoma
29 µM: RXF 393 renal
32.3 µM: MDA-N
38.1 µM: OVCAR-3 ovarian
> 66 µM: UO-31 renal
> 71 µM: COLO 205 colon
40.7 µM: HT29 colon
44.4 µM: OVCAR-4 ovarian
30.5 µM: UACC-62 melanoma
27 µM: HCT-116 colon
17.3 µM: NCI-H522 lung
46.6 µM: MDA-MB-231 breast
> 68.5 µM: SN12C renal
> 69.7 µM: IGROV1 ovarian
9.01 µM: CCRF-CEM leukemia
> 77.8 µM: RPMI-8226 leukemia
> 71.4 µM: ACHN renal
> 84.4 µM: HS 578T breast
54.7 µM: SK-MEL-2 melanoma
> 62.2 µM: SF-539 CNS
76.7 µM: MCF7 breast
38.9 µM: SW-620 colon

CCN(CC)c1ccc2cc(C(=O)Nc3cccc4ccccc34)c(=N)oc2c1
> 100 µM: SNB-75 CNS | NCI-H226 lung | SF-539 CNS | K-562 leukemia | SR leukemia | IGROV1 ovarian | LOX IMVI melanoma | HCC-2998 colon | TK-10 renal | MDA-MB-231 breast | OVCAR-8 ovarian | HCT-15 colon | M14 melanoma | CAKI-1 renal | COLO 205 colon | NCI-H522 lung | RPMI-8226 leukemia | OVCAR-4 ovarian | EKVX NSCLC | UACC-257 melanoma | HS 578T breast | U251 CNS | SW-620 colon | CCRF-CEM leukemia | HL-60(TB) leukemia | HOP-92 NSCLC | SK-OV-3 ovarian | ACHN renal | RXF 393 renal | MDA-MB-435 | MALME-3M melanoma | OVCAR-5 ovarian | SF-268 CNS | UO-31 renal | SK-MEL-28 melanoma | SN12C renal | DU-145 prostate | A549 NSCLC | SF-295 CNS | MCF7 breast | SK-MEL-2 melanoma | NCI/ADR-RES ovarian | T-47D breast | SNB-19 CNS | SK-MEL-5 melanoma | HT29 colon | 786-0 renal | HCT-116 colon | NCI-H460 lung | MDA-N | PC-3 prostate | UACC-62 melanoma | KM12 colon
62.1 µM: BT-549 breast

C/C=C(/C)C(=O)O[C@H](C[C@@H](C)[C@H]1CC(c2ccoc2)OC1=O)[C@@]1(C)C(=O)CCC2O[C@]21C (stereo partly drawn)
> 100 µM: SNB-75 CNS | NCI-H226 lung | SF-539 CNS | K-562 leukemia | BT-549 breast | SR leukemia | IGROV1 ovarian | LOX IMVI melanoma | HCC-2998 colon | TK-10 renal | MDA-MB-231 breast | OVCAR-8 ovarian | HCT-15 colon | M14 melanoma | A498 renal | CAKI-1 renal | COLO 205 colon | NCI-H522 lung | RPMI-8226 leukemia | OVCAR-4 ovarian | EKVX NSCLC | OVCAR-3 ovarian | UACC-257 melanoma | HS 578T breast | U251 CNS | SW-620 colon | CCRF-CEM leukemia | HL-60(TB) leukemia | SK-OV-3 ovarian | ACHN renal | RXF 393 renal | MDA-MB-435 | MOLT-4 leukemia | MALME-3M melanoma | OVCAR-5 ovarian | UO-31 renal | SK-MEL-28 melanoma | DU-145 prostate | A549 NSCLC | SF-295 CNS | MCF7 breast | SK-MEL-2 melanoma | NCI/ADR-RES ovarian | T-47D breast | SNB-19 CNS | SK-MEL-5 melanoma | HT29 colon | NCI-H23 lung | 786-0 renal | HCT-116 colon | NCI-H460 lung | MDA-N | PC-3 prostate | UACC-62 melanoma | KM12 colon
